Results taken from patent US20260337245A1, “POLYPEPTIDE OR ANALOG THEREOF AND USE THEREOF” (Shenzhen Bay Laboratory, priority 2024, published 2026).
Starred links: 1 amine or outer side, 2 acyl side, 3 side chain; linkers in the order of their positions; H or OH if unused. Positions of bridges follow the written chain, without caps; N, C: chain ends. Non-standard residues stand in square brackets, D forms with d. Residues, ends and D or L forms follow the SMILES beside them. X1 = O=C(O)CCCCCCCCCCCCCCCCCCC(=O)N[C@@H](CCCCNC(=O)COCCOCCNC(=O)COCCOCCNC(=O)CCC(=O)N(CCNC(=O)C[*:1])CCNC(=O)C[*:2])C(=O)O; Aib = CC(C)(N)C(=O)O

Tests used:
[1] = biological target: T1, CTR (Homo sapiens, UniProt P30988); test: HTRF cAMP assay, CTR; type: cell-based; conditions: HEK293/pGM-CREB-L-Luc/CTR pool, read-out: IC50 of receptor CTR
T1 construct: expressed in transfected cells
T1 sequence (P30988 25-474): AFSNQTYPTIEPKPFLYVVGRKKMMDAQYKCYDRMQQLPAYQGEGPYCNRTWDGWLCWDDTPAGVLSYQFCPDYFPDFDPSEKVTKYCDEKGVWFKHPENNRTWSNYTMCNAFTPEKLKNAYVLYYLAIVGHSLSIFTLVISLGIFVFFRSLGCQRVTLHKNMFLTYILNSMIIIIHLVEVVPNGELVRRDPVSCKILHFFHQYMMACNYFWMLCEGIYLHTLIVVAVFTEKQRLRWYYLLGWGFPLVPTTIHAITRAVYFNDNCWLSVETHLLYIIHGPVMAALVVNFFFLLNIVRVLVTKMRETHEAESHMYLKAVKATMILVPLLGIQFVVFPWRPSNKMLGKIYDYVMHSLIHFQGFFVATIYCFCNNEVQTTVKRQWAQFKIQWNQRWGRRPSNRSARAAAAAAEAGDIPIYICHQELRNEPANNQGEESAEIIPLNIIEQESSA
Excerpt: (§1) 2. The polypeptide derivatives prepared in Example 1 and Example 2 of the present disclosure can bind to the target AMYR and CTR receptors on the cell membrane, activate the receptors and release cAMP. Therefore, the activity of the analyte can be determined by using an HTRF (homogeneous time-resolved fluorescence) method and using a cAMP detection kit. The specific steps were as follows:
(§2) A stable transfected cell line of HEK293/pGM-CREB-L-Luc/AMY3R pool and HEK293/pGM-CREB-L-Luc/CTR pool was constructed. The polypeptide derivatives (i.e., AMY-001 to AMY-041) prepared in Examples 1 and 2 were subjected to 5-fold serial dilution from a maximum of 1000 nM to prepare a dilution series containing 8 to 11 concentration gradients. Cagrilintide and sCT were selected as positive controls for testing, and a dilution series was prepared according to the same method for testing. The test cell lines were selected and treated with cAMP-specific trypsin for digestion, and then suspended with 3 mL of serum-free DMEM medium by pipetting, and the cells were counted. 5 μL of IBMX (prepared with serum-free DMEM medium, 0.5 mM) and test cells (5 μL/7500 cells/well) were sequentially added to a 384-well plate, incubated under the conditions of 37° C., 5% CO2 for 30 minutes, then added with cAMP-d2 (5 μL, 1×) and Anti-cAMP-Cryptate (5 μL, 1×) and placed at room temperature for 1 hour. A HTRF value was determined by a chemiluminescence microplate reader, and the results were recorded. An activation curve was plotted using GraphPad Prism software to calculate an IC50 value of each polypeptide derivative. […] The IC50 values of some polypeptides were exemplarily shown in this example, see Table 3, FIG. 2 and FIG. 3 for details.

[2] = biological target: T2, AMY3R (Homo sapiens, UniProt P30988); test: HTRF cAMP assay, AMY3R; type: cell-based; conditions: HEK293/pGM-CREB-L-Luc/AMY3R pool, read-out: IC50 of receptor AMY3R
T2 construct: expressed in transfected cells
T2 sequence (P30988 25-474): T1 sequence (P30988 25-474)
T2 sequence (O60896 24-148 partner): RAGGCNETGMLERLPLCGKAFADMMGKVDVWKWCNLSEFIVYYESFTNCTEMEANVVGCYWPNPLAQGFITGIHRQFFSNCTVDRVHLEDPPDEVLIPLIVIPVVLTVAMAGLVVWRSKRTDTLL
Excerpt: as §1, §2

| SMILES | EC50 [1] [nM] | EC50 [2] [nM] |
| --- | --- | --- |
| CC(=O)N[C@@H](C)C(=O)N[C@@H](CO)C(=O)N[C@@H](Cc1c[nH]cn1)C(=O)N[C@@H](CC(C)C)C(=O)N[C@@H](CO)C(=O)N[C@H](C(=O)N[C@@H](C)C(=O)N[C@H](C(=O)N[C@@H](CC(C)C)C(=O)NCC(=O)N[C@H]1CSCC(=O)NCCN(C(=O)CCC(=O)NCCOCCOCC(=O)NCCOCCOCC(=O)NCCCC[C@H](NC(=O)CCCCCCCCCCCCCCCCCCC(=O)O)C(=O)O)CCNC(=O)CSC[C@@H](C(=O)N[C@@H](CC(C)C)C(=O)NC(C)(C)C(=O)N[C@@H](CC(=O)O)C(=O)N[C@@H](Cc2ccc(O)cc2)C(=O)N2CCC[C@H]2C(=O)N[C@@H](CCCNC(=N)N)C(=O)N[C@H](C(=O)N[C@@H](CC(=O)O)C(=O)N[C@H](C(=O)NCC(=O)N[C@@H](C)C(=O)NCC(=O)N[C@@H](CO)C(=O)N2CCC[C@H]2C(N)=O)C(C)C)[C@@H](C)O)NC(=O)[C@H](Cc2c[nH]cn2)NC(=O)[C@H](CC(C)C)NC(=O)[C@H](CCC(=O)O)NC(=O)[C@H](C)NC(=O)[C@H](CO)NC(=O)[C@H](CC(C)C)NC1=O)C(C)C)[C@@H](C)O [AMY-006, Ac-ASHLSTAVLGCLSAELHCL-Aib-DYPRTDVGAGSP-NH2] (Ac-ASHLSTAVLGCLSAELHCL[Aib]DYPRTDVGAGSP-NH2; linker 11-18 via X1) | 0.0107 | 0.0254 |
| CC(=O)N[C@@H](C)C(=O)N[C@@H](CO)C(=O)N[C@@H](Cc1c[nH]cn1)C(=O)N[C@@H](CC(C)C)C(=O)N[C@@H](CO)C(=O)N[C@H](C(=O)N[C@@H](C)C(=O)N[C@H](C(=O)N[C@@H](CC(C)C)C(=O)NCC(=O)N[C@@H](CCCNC(=N)N)C(=O)N[C@H]1CSCC(=O)NCCN(C(=O)CCC(=O)NCCOCCOCC(=O)NCCOCCOCC(=O)NCCCC[C@H](NC(=O)CCCCCCCCCCCCCCCCCCC(=O)O)C(=O)O)CCNC(=O)CSC[C@@H](C(=O)NC(C)(C)C(=O)N[C@@H](CC(=O)O)C(=O)N[C@@H](Cc2ccc(O)cc2)C(=O)N2CCC[C@H]2C(=O)N[C@@H](CCCNC(=N)N)C(=O)N[C@H](C(=O)N[C@@H](CC(=O)O)C(=O)N[C@H](C(=O)NCC(=O)N[C@@H](C)C(=O)NCC(=O)N[C@@H](CO)C(=O)N2CCC[C@H]2C(N)=O)C(C)C)[C@@H](C)O)NC(=O)[C@H](CCCCN)NC(=O)[C@H](Cc2c[nH]cn2)NC(=O)[C@H](CC(C)C)NC(=O)[C@H](CCC(=O)O)NC(=O)[C@H](C)NC(=O)[C@H](CO)NC1=O)C(C)C)[C@@H](C)O [AMY-007, Ac-ASHLSTAVLGRCSAELHKC-Aib-DYPRTDVGAGSP-NH2] (Ac-ASHLSTAVLGRCSAELHKC[Aib]DYPRTDVGAGSP-NH2; linker 12-19 via X1) | 0.262 | 0.349 |
| CC(=O)N[C@@H](C)C(=O)N[C@@H](CO)C(=O)N[C@@H](Cc1c[nH]cn1)C(=O)N[C@@H](CC(C)C)C(=O)N[C@@H](CO)C(=O)N[C@H](C(=O)N[C@@H](C)C(=O)N[C@H](C(=O)N[C@@H](CC(C)C)C(=O)N[C@H]1CSCC(=O)NCCN(C(=O)CCC(=O)NCCOCCOCC(=O)NCCOCCOCC(=O)NCCCC[C@H](NC(=O)CCCCCCCCCCCCCCCCCCC(=O)O)C(=O)O)CCNC(=O)CSC[C@@H](C(=O)N[C@@H](CCCCN)C(=O)N[C@@H](CC(C)C)C(=O)NC(C)(C)C(=O)N[C@@H](CC(=O)O)C(=O)N[C@@H](Cc2ccc(O)cc2)C(=O)N2CCC[C@H]2C(=O)N[C@@H](CCCNC(=N)N)C(=O)N[C@H](C(=O)N[C@@H](CC(=O)O)C(=O)N[C@H](C(=O)NCC(=O)N[C@@H](C)C(=O)NCC(=O)N[C@@H](CO)C(=O)N2CCC[C@H]2C(N)=O)C(C)C)[C@@H](C)O)NC(=O)[C@H](CC(C)C)NC(=O)[C@H](CCC(=O)O)NC(=O)[C@H](C)NC(=O)[C@H](CO)NC(=O)[C@H](CC(C)C)NC(=O)[C@H](CCCNC(=N)N)NC1=O)C(C)C)[C@@H](C)O [AMY-005, Ac-ASHLSTAVLCRLSAELCKL-Aib-DYPRTDVGAGSP-NH2] (Ac-ASHLSTAVLCRLSAELCKL[Aib]DYPRTDVGAGSP-NH2; linker 10-17 via X1) | 0.303 | 0.198 |
| CC(=O)N[C@@H](C)C(=O)N[C@@H](CO)C(=O)N[C@@H](Cc1c[nH]cn1)C(=O)N[C@@H](CC(C)C)C(=O)N[C@@H](CO)C(=O)N[C@H](C(=O)N[C@H]1CSCC(=O)NCCN(C(=O)CCC(=O)NCCOCCOCC(=O)NCCOCCOCC(=O)NCCCC[C@H](NC(=O)CCCCCCCCCCCCCCCCCCC(=O)O)C(=O)O)CCNC(=O)CSC[C@@H](C(=O)N[C@@H](CCC(=O)O)C(=O)N[C@@H](CC(C)C)C(=O)N[C@@H](Cc2c[nH]cn2)C(=O)N[C@@H](CCCCN)C(=O)N[C@@H](CC(C)C)C(=O)NC(C)(C)C(=O)N[C@@H](CC(=O)O)C(=O)N[C@@H](Cc2ccc(O)cc2)C(=O)N2CCC[C@H]2C(=O)N[C@@H](CCCNC(=N)N)C(=O)N[C@H](C(=O)N[C@@H](CC(=O)O)C(=O)N[C@H](C(=O)NCC(=O)N[C@@H](C)C(=O)NCC(=O)N[C@@H](CO)C(=O)N2CCC[C@H]2C(N)=O)C(C)C)[C@@H](C)O)NC(=O)[C@H](CO)NC(=O)[C@H](CC(C)C)NC(=O)[C@H](CCCNC(=N)N)NC(=O)CNC(=O)[C@H](CC(C)C)NC(=O)[C@H](C(C)C)NC1=O)[C@@H](C)O [AMY-002, Ac ASHLSTCVLGRLSCELHKL-Aib-DYPRTDVGAGSP-NH2] (Ac-ASHLSTCVLGRLSCELHKL[Aib]DYPRTDVGAGSP-NH2; linker 7-14 via X1) | 0.0906 | 0.0671 |

The next lines start with the values.

| EC50 [1] [nM] | EC50 [2] [nM] | SMILES |
| --- | --- | --- |
| – | 0.0123 | CC[C@H](C)[C@H](NC(=O)[C@@H]1CCCN1C(=O)CNC(=O)[C@H](Cc1ccccc1)NC(=O)[C@H](CC(N)=O)NC(=O)[C@H](CC(N)=O)NC(=O)[C@H](CO)NC(=O)[C@H](CO)NC(=O)[C@H](Cc1c[nH]cn1)NC(=O)[C@H](CCCNC(=N)N)NC(=O)[C@H](CC(C)C)NC(=O)[C@H](Cc1ccccc1)NC(=O)[C@H](CCC(=O)O)NC(=O)[C@H](C)NC(=O)[C@H](CC(C)C)NC(=O)[C@H](CCCNC(=N)N)NC(=O)[C@H](CCC(N)=O)NC(=O)[C@@H](NC(=O)[C@H](C)NC(=O)[C@@H]1CSSC[C@H](NC(=O)[C@H](CCCCN)NC(=O)CC[C@H](NC(=O)CCCCCCCCCCCCCCCCCCC(=O)O)C(=O)O)C(=O)N[C@@H](CC(N)=O)C(=O)N[C@@H]([C@@H](C)O)C(=O)N[C@@H](C)C(=O)N[C@@H]([C@@H](C)O)C(=O)N1)[C@@H](C)O)C(=O)N[C@@H](CC(C)C)C(=O)N1CCC[C@H]1C(=O)N1CCC[C@H]1C(=O)N[C@H](C(=O)N[C@@H](CC(N)=O)C(=O)N[C@H](C(=O)NCC(=O)N[C@@H](CO)C(=O)N[C@@H](CC(N)=O)C(=O)N[C@H](C(=O)N1CCC[C@H]1C(N)=O)[C@@H](C)O)C(C)C)[C@@H](C)O [Cagrilintide, reference compound] |
| 0.0502 | 0.0713 | CC(=O)N[C@@H](C)C(=O)N[C@@H](CO)C(=O)N[C@@H](Cc1c[nH]cn1)C(=O)N[C@@H](CC(C)C)C(=O)N[C@@H](CO)C(=O)N[C@H](C(=O)N[C@@H](C)C(=O)N[C@H](C(=O)N[C@@H](CC(C)C)C(=O)NCC(=O)N[C@@H](CCCNC(=N)N)C(=O)N[C@@H](CC(C)C)C(=O)N[C@H]1CSCC(=O)NCCN(C(=O)CCC(=O)NCCOCCOCC(=O)NCCOCCOCC(=O)NCCCC[C@H](NC(=O)CCCCCCCCCCCCCCCCCCC(=O)O)C(=O)O)CCNC(=O)CSC[C@@H](C(=O)N[C@@H](CC(=O)O)C(=O)N[C@@H](Cc2ccc(O)cc2)C(=O)N2CCC[C@H]2C(=O)N[C@@H](CCCNC(=N)N)C(=O)N[C@H](C(=O)N[C@@H](CC(=O)O)C(=O)N[C@H](C(=O)NCC(=O)N[C@@H](C)C(=O)NCC(=O)N[C@@H](CO)C(=O)N2CCC[C@H]2C(N)=O)C(C)C)[C@@H](C)O)NC(=O)[C@H](CC(C)C)NC(=O)[C@H](CCCCN)NC(=O)[C@H](Cc2c[nH]cn2)NC(=O)[C@H](CC(C)C)NC(=O)[C@H](CCC(=O)O)NC(=O)[C@H](C)NC1=O)C(C)C)[C@@H](C)O [AMY-008] (Ac-ASHLSTAVLGRLCAELHKLCDYPRTDVGAGSP-NH2; linker 13-20 via X1) |
